Literature values as cited in US8138336B2, “Pyrrolotriazine derivatives useful for treating cancer through inhibition of aurora kinase” (Bayer HealthCare LLC, priority 2007, dated 2012).
Where two headings read alike, the source gives them in different places.

Tested on: breast tumors

In the case of CC(=O)O[C@@]12CO[C@@H]1C[C@H](O)[C@@]1(C)C(=O)[C@H](O)C3=C(C)[C@@H](OC(=O)[C@H](O)[C@@H](NC(=O)OC(C)(C)C)c4ccccc4)C[C@@](O)([C@@H](OC(=O)c4ccccc4)[C@H]21)C3(C)C [Docetaxel], the “response rate to Docetaxel treatment” value (patients with breast tumors with high Aurora-A mRNA levels) is given as 41% and the “response rate to Docetaxel treatment” value (patients with low Aurora-A mRNA breast tumors) is given as 71%.
